# Experimental data: US20220136016A1, “MODIFIED CHLORAMPHENICOL […] AND BIOSYNTHESIS METHOD OF MAKING ESTERS USING SAME” (UNIVERSITY OF TENNESSEE RESEARCH FOUNDATION, priority 2020, published 2022)
# Where two headings read alike, the source gives them in different places.
# Legend:
# CATec3 Y20F = CATec3 Y20F (Escherichia coli, UniProt P00484, Y20F); format: biochemical
# [1] = Melting temperature (Tm) of purified His-tagged CATs; format: physicochemical; settings: purified CAT
# Procedure: To determine in vitro melting temperatures and catalytic efficiencies, His-tagged CATs were purified and characterized using know methods. In the 5,5′-dithiobis-2-nitrobenzoic acid (DTNB) assay, final enzyme concentrations of 0.05-0.1 μg/mL and 5-10 μg/mL were used for the reactions with chloramphenicol and alcohols, respectively. […] The enzyme reactions were held at 50° C. in a BioTek microplate reader for at least 30 minutes with measurements every one minute. The kinetic parameters were calculated using a non-linear regression method known to one of skill in the art.
# [2] = CATec3 Y20F, 50° C., 2 mM acetyl-CoA, average±standard deviation
molecule,measurement,setting,value
CC(C)=CCC/C(C)=C/CO [Geraniol],Km,CATec3 Y20F; [2],4.1 ± 0.4 mM
same,kcat,CATec3 Y20F; [2],8.0 ± 0.2 s⁻¹
CC(C)=CCC/C(C)=C\CO [Nerol],Km,CATec3 Y20F; [2],4.1 ± 0.8 mM
same,kcat,CATec3 Y20F; [2],2.2 ± 0.04 s⁻¹
CCCCCCO [Hexanol],Km,CATec3 Y20F; [2],29.2 ± 4 mM
same,kcat,CATec3 Y20F; [2],6.4 ± 0.4 s⁻¹
CCO [Ethanol],kcat,CATec3 Y20F; [2],0.8 ± 1.0 s⁻¹
O=C(N[C@H](CO)[C@H](O)c1ccc([N+](=O)[O-])cc1)C(Cl)Cl [Chloramphenicol],Km,CATec3 Y20F; [2],0.2 ± 0.05 mM
same,kcat,CATec3 Y20F; [2],105.5 ± 6.9 s⁻¹
OCc1ccco1 [Furfuryl alcohol],Km,CATec3 Y20F; [2],37.1 ± 9.8 mM
same,kcat,CATec3 Y20F; [2],1.1 ± 0.1 s⁻¹
COc1cccc(CO)c1 [3-Methoxybenzyl alcohol],Km,CATec3 Y20F; [2],10 ± 1.2 mM
same,kcat,CATec3 Y20F; [2],18.8 ± 0.9 s⁻¹
CCCCCO [Pentanol],Km,CATec3 Y20F; [2],64.7 ± 33.6 mM
same,kcat,CATec3 Y20F; [2],3.9 ± 1.0 s⁻¹
CC(C)=CCO [Prenol],kcat,CATec3 Y20F; [2],2.7 ± 0.3 s⁻¹
OCc1ccccc1 [Benzyl alcohol],Km,CATec3 Y20F; [2],12.2 ± 1.6 mM
same,kcat,CATec3 Y20F; [2],1.6 ± 0.1 s⁻¹
Butanol,kcat,CATec3 Y20F,1.9 ± 0.4 s⁻¹
CC/C=C\CCO [3-cis-Hexen-1-ol],kcat,CATec3 Y20F; [2],2.3 ± 0.2 s⁻¹
same,Km,"CATec3 Y20F; CATec3 Y20F, 50° C., 2 mM acetyl-CoA, average±standard deviation, read-out: KM",6.4 ± 2.2 mM
CC(C)=CCCC(C)CCO (centres unmarked) [Citronellol],Km,CATec3 Y20F; [2],3.2 ± 0.3 mM
same,kcat,CATec3 Y20F; [2],7.7 ± 0.2 s⁻¹
CC(C)CCO [Isoamyl alcohol],Km,CATec3 Y20F; [2],59.9 ± 26.6 mM
same,kcat,CATec3 Y20F; [2],2.8 ± 0.3 s⁻¹
OCCc1ccccc1 [Phenylethyl alcohol],Km,CATec3 Y20F; [2],10.6 ± 0.4 mM
same,kcat,CATec3 Y20F; [2],6.1 ± 0.1 s⁻¹
CC(C)CO [Isobutanol],kcat,CATec3 Y20F; [2],2.3 ± 0.1 s⁻¹
"CATec3 F97W Y20F: CATec3 with Y20F mutation in combination with F97W (protein, UniProt P00484 1-213, looked up, variant Y20F F97W) Chloramphenicol …: MNYTKFDVKNWVRREHFEFFRHRLPCGFSLTSKIDITTLKKSLDDSAYKFYPVMIYLIAQAVNQFDELRMAIKDDELIVWDSVDPQFTVFHQETETWSALSCPYSSDIDQFMVNYLSVMERYKSDTKLFPQGVTPENHLNISALPWVNFDSFNLNVANFTDYFAPIITMAKYQQEGDRLLLPLSVQVHHAVCDGFHVARFINRLQELCNSKLK",melting temperature (Tm),[1],85.5 °C
"CATec3 F97W: comparative CATec3 with F97W mutation (protein, UniProt P00484 1-213, looked up, variant F97W) Chloramphenicol …: MNYTKFDVKNWVRREHFEFYRHRLPCGFSLTSKIDITTLKKSLDDSAYKFYPVMIYLIAQAVNQFDELRMAIKDDELIVWDSVDPQFTVFHQETETWSALSCPYSSDIDQFMVNYLSVMERYKSDTKLFPQGVTPENHLNISALPWVNFDSFNLNVANFTDYFAPIITMAKYQQEGDRLLLPLSVQVHHAVCDGFHVARFINRLQELCNSKLK",melting temperature (Tm),[1],81.2 °C
"CATec3: wild type CAT, type A, Escherichia coli; expressed in strain HSCT2107 (protein, listed as Escherichia coli, SITE (1)..(213) CAT3_ECOLX, Type A, wild type CAT, type A, Escherichia coli; expressed in strain HSCT2107) MNYTKFDVKNWVRREHFEFYRHRLPCGFSLTSKIDITTLKKSLDDSAYKFYPVMIYLIAQAVNQFDELRMAIKDDELIVWDSVDPQFTVFHQETETFSALSCPYSSDIDQFMVNYLSVMERYKSDTKLFPQGVTPENHLNISALPWVNFDSFNLNVANFTDYFAPIITMAKYQQEGDRLLLPLSVQVHHAVCDGFHVARFINRLQELCNSKLK",melting temperature (Tm),[1],80.2 °C
"CAT_GEO: wild type CAT, type A, Geomicrobium sp. (protein, listed as Geomicrobium sp., SITE (1)..(215) CAT_GEO, Type A) MTFNPITLENWERKEYFNHYLNQQTTFSMTTDIEISSFKAAIKRKGYKFYPTFIYMVTEVINANESFRISFNEEGKLGYWEKLIPLYTVFDDQKQSFSNLWTDSTGNVLTFQEDYDRDVAEYNHIGGLFPKTPIPANTFPISMIPWNSFSGFNLNVGNGGNFLLPIITAGKYYSKGTATYLPVSLQVHHAVCDGYHAASFMNQLQELANTTNEWL",melting temperature (Tm),[1],43.5 °C
